# Source: publication PMC9230797, “Integration of a Physiologically Based Pharmacokinetic and Pharmacodynamic Model for Tegoprazan and Its Metabolite: Application for Predicting Food Effect and Intragastric pH Alterations” (Pharmaceutics, 2022)
# Values joined by “and” are separate entries in the source; they are usually repeats but may differ in a detail not shown here. Equal entries are not always repeated. Where two headings read alike, the source gives them in different places.
# Assays:
# [1] = tested on: intragastric pH; parameters: method as in PMID 31437865; settings: Observed (n = 6), cited from earlier work
# [2] = target: T1, recombinant CYP2D6 (Homo sapiens, UniProt P10635); test: Intrinsic clearance using recombinant CYPs: CYP2D6; format: in vitro ADME; settings: 1 μM
# T1 construct: purchased Corning Life Sciences (Woburn, MA, USA)
# T1 sequence (P10635 whole entry): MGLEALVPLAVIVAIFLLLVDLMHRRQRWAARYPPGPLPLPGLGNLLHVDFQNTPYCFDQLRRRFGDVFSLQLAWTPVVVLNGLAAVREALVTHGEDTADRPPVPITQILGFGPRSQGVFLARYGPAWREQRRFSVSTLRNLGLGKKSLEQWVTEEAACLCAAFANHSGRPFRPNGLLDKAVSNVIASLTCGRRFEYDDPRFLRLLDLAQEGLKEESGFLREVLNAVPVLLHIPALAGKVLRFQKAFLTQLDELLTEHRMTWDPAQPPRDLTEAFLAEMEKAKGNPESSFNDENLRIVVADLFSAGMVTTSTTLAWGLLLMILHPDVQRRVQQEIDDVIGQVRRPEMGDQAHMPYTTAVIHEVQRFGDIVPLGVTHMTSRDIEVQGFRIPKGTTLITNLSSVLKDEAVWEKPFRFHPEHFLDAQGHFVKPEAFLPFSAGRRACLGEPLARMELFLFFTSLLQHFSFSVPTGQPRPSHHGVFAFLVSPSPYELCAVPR
# Protocol: The elimination profiles of tegoprazan and M1 were assessed using rCYPs. All the assay procedures were performed according to the manufacturer’s instructions. Master mix (1.399 mL), containing the NADPH-generating system, 3.3 mM of glucose 6-phosphate, PBS buffer, deionized water, and each rCYP (25 pmol/μL of CYP2C8, 2C19, and 2E1 and 50 pmol/μL of CYP3A4, 2C9, and 2D6), was added to a microtube and pre-incubated at 37 °C for 5 min. Next, 1 μM tegoprazan and M1 were added and incubated at 37 °C for 0, 5, 10, 20, 30, 45, and 60 min. A total of 100 μL of the sample, incubated for predefined duration, was transferred to a fresh e-tube. Next, 200 μL of acetonitrile containing tegoprazan-d6 (0.5 μM) was added, vortexed for 5 min, and centrifuged at 16,200× g and 4 °C for 10 min. The concentrations of the remaining tegoprazan and M1 were determined by LC–MS/MS. All experiments were performed in duplicate. CLint,rCYP levels were assessed using the results of the disappearance test. The terminal slope of the linear regression was used to determine the CLint for tegoprazan. The CLint resulting from rCYPs was calculated using Equation (3):(3) CLint,rCYP(μL/min/pmol CYP)=0.693/t1/2×1400/concentration of CYP […]
# [3] = target: T2, CYP3A4 (Homo sapiens, UniProt P08684); test: Intrinsic clearance using recombinant CYPs: CYP3A4; format: in vitro ADME
# T2 construct: purchased Corning Life Sciences (Woburn, MA, USA)
# T2 sequence (P08684 whole entry): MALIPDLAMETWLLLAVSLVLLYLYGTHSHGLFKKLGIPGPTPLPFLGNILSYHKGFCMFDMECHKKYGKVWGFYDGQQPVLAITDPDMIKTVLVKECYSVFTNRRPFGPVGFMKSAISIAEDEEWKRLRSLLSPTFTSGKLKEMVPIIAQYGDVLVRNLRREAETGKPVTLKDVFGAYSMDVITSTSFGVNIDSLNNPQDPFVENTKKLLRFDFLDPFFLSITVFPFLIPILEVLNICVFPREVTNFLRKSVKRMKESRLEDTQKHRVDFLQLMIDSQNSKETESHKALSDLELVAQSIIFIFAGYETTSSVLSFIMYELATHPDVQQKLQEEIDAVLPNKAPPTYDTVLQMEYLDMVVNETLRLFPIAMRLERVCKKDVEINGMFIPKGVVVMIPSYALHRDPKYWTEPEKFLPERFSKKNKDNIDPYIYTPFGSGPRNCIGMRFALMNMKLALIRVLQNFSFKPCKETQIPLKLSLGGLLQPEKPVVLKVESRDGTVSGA
# Protocol: The elimination profiles of tegoprazan and M1 were assessed using rCYPs. All the assay procedures were performed according to the manufacturer’s instructions. Master mix (1.399 mL), containing the NADPH-generating system, 3.3 mM of glucose 6-phosphate, PBS buffer, deionized water, and each rCYP (25 pmol/μL of CYP2C8, 2C19, and 2E1 and 50 pmol/μL of CYP3A4, 2C9, and 2D6), was added to a microtube and pre-incubated at 37 °C for 5 min. Next, 1 μM tegoprazan and M1 were added and incubated at 37 °C for 0, 5, 10, 20, 30, 45, and 60 min. A total of 100 μL of the sample, incubated for predefined duration, was transferred to a fresh e-tube. Next, 200 μL of acetonitrile containing tegoprazan-d6 (0.5 μM) was added, vortexed for 5 min, and centrifuged at 16,200× g and 4 °C for 10 min. The concentrations of the remaining tegoprazan and M1 were determined by LC–MS/MS. All experiments were performed in duplicate. CLint,rCYP levels were assessed using the results of the disappearance test. […] The CLint resulting from rCYPs was calculated using Equation (3):(3) CLint,rCYP(μL/min/pmol CYP)=0.693/t1/2×1400/concentration of CYP
# Caco-2 and rCYP samples were quantified using LC-MS/MS (UPLC® I-class coupled with TQ-MS (Waters, Milford, MA, USA). The mobile phase comprised (a) 0.1% formic acid and (b) acetonitrile containing 0.1% formic acid. Gradient elution at a flow rate of 0.3 mL/min was applied. Tegoprazan, M1, and the internal standard (tegoprazan-d6) were optimized in electrospray ionization positive mode. Acetonitrile with 0.1 μM of tegoprazan-d6 was added to the collected Caco-2 or rCYP samples. Then, processed samples were centrifuged at 13,000× g for 20 min. After centrifugation, 100 μL of supernatant was transferred to an LC-MS vial and analyzed using LC-MS/MS. […] The stability of tegoprazan was evaluated, and it satisfied the acceptance criteria (coefficient of variances was within 15%) under variable conditions including reinjection, processed sample stability (PSS), and short-term stability for the stock and sample.
# [4] = parameters: method as in PMID 32055586; settings: Observed (n = 12); single 100 mg tegoprazan; mean (5th–95th percentile); cited from earlier work
# [5] = PBPK model prediction of plasma PK (SimCYP simulator); parameters: species or system human
# Excerpt: The tegoprazan and M1 PBPK models were developed using SimCYP® simulator, version 20 (Certara, Princeton, NJ, USA). Compound libraries were incorporated into an in vitro dataset, including the microsomal clearance of tegoprazan and M1. Observed PK parameters were obtained from the aforementioned clinical studies (Table 1 and Table 2).
# The absorption of tegoprazan was applied to the advanced dissolution, absorption, and metabolism (ADAM) model, and the diffusion layer model (DLM) built into SimCYP® was applied to the considered formulation and pH-dependent solubility of tegoprazan. The permeability of tegoprazan was determined by a Caco-2 permeability assay and optimized by parameter estimation. Caco-2 permeability was optimized such that the predicted concentration–time profiles were fitted to clinical study data. The metabolite was generated by the metabolism of the parent drug; therefore, absorption was not considered.
# The tissue distribution in the PBPK model was predicted by the distribution model (e.g., Rodger and Rowland method, Poulin and Theil method) and the tissue:plasma partition coefficient (Kp) scalar for specific organ or global values. Predicted systemic distribution was expressed as the volume of distribution in a steady state (Vss). The Vd values of the clinical study were applied to the initial model of tegoprazan, and parameter estimation was used to determine the optimized Kp scalar fitted to the observed data. The Rodger and Rowland method (method 2) was applied to consider the weak base property and distribution of the neutral and ionic forms. The minimal PBPK model was applied to the M1 distribution module to reduce the complexity. The volume of a single adjusting compartment (Vsac), non-physiological compartment, input rate to SAC (kin), and elimination rate from SAC (kout) were estimated using the parameter estimation module within SimCYP®.
# The elimination profiles of tegoprazan and M1 were obtained from in vitro, in vivo, and in silico predictions. Optimized in-house intrinsic clearance for CYPs (CLint,rCYPs), and human liver microsomal and cytosolic (HLM and HLC) clearance were applied to the elimination module of the tegoprazan model. Observed or estimated renal and biliary clearance were applied to the tegoprazan and M1 models. Whole-organ metabolic clearance, using the optimized value for the in vitro assay results, was applied to the M1 model.
# The virtual dosing regimen was set to a single oral dose of 100 mg tegoprazan, to match that of the observed data. The simulation conditions were set for 100 virtual subjects who participated in 10 virtual clinical studies (1000 volunteers). The age range was 20 to 40 years, and the male-to-female ratio was 1:1. The predicted and observed PK parameters were compared to evaluate the model prediction results. […] If the predicted vs. observed ratio and its 95% CI were within the 30% range (0.7–1.3), the model was considered to fit well.
# Postprandial PK profiles were predicted using an established model. Concentration–time profiles were obtained following a single oral dose (50 mg) of tegoprazan in the fasting state or 30 min after a high-fat diet. The predicted AUClast, Cmax, and Tmax values were compared with those of a previous clinical study.
# [6] = At 30 min after a high-fat meal, single 50 mg
# [7] = single 100 mg tegoprazan, (95% confidence interval)
smiles,measurement,setting,value
Cc1nc2cc(C(=O)N(C)C)cc(O[C@H]3CCOc4cc(F)cc(F)c43)c2[nH]1 [tegoprazan],pH ≥ 4 over 24 h,[1]; 50 mg Single,48.9%
same,pH ≥ 4 over 24 h,"[1]; 100 mg q.d. for 7 Days, Day 1",62.3%
same,pH ≥ 4 over 24 h,"[1]; 100 mg q.d. for 7 Days, Day 7",70.4%
same,"CLint, CYP2D6",[2]; experimental data,0.02 µL/min/pmol and 0.020 µL/min/pmol
same,Slope (disappearance),[2]; rCYP2D6,< 0.001
same,"CLint, CYP3A4","[3]; 1 μM, experimental (initial model value)",0.86 µL/min/pmol and 0.855 µL/min/pmol
same,half-life at 1 μM,"[3]; human, recombinant CYP3A4, rCYP3A4",22.7 min
same,Slope (disappearance),"[3]; rCYP3A4, 1 μM",-0.031
same,AUC0–24 h,[4],5611 (3783–7489) ng × h/mL
same,CL,[4],17.8 (13.1–24.4) L/h
same,Cmax,[4],1425 (908–2184) ng/mL
same,increase of predicted Cmax at Day 7 compared with Day 1,[5]; 100 mg once daily,approximately 1.84%
same,AUC0–24 h Ratio (Predicted/Observed),[5]; [6],0.88 (0.43–1.32)
same,Cmax Ratio (Predicted/Observed),[5]; [6],0.96 (0.32–1.59)
same,AUC0–24 h Ratio (Predicted/Observed),"[5]; Fast, single 50 mg",0.89 (0.45–1.33)
same,Cmax Ratio (Predicted/Observed),"[5]; Fast, single 50 mg",0.85 (0.62–1.09)
same,decrease of predicted mean Cmax after a high-fat diet vs fasted state,[5]; single 50 mg,31.3%
same,AUC0–24 h Ratio (Predicted/Observed),[5]; [7],0.90 (0.85–0.96)
same,CL Ratio (Predicted/Observed),[5]; [7],1.25 (1.17–1.34)
same,Cmax Ratio (Predicted/Observed),[5]; [7],0.88 (0.80–1.00)
